Test results as given in patent US12286424B2, “Small molecule inhibitors of galectin-3” (BRISTOL-MYERS SQUIBB COMPANY, priority 2020, dated 2025).
Read-outs that look alike come from different tables or passages of the source.

Target: T1, hGalectin-3 (Homo sapiens, UniProt P17931)
T1 construct: made in house
Assay: Gal-3 ELISA assay (hGalectin-3 neutralization binding to asialofetuin)

[1] = biotin-tagged hGalectin-3 15 nM, ASF-coated plate, read-out: hGal3 IC50

T1 sequence (P17931 whole entry): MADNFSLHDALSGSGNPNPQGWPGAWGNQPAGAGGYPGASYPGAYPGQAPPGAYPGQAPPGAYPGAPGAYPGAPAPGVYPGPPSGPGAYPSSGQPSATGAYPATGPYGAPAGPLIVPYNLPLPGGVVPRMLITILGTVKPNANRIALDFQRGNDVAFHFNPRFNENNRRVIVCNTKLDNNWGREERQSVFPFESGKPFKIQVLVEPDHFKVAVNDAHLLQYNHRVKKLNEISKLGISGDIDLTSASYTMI

SMILES	IC50 [1] [nM]	also measured
OCC1CN(c2ccc(O)cc2)CCN1C[C@@H]1O[C@H](CO)[C@H](O)[C@H](n2cc(-c3cccc(F)c3)nn2)[C@H]1O (single isomer, unassigned) [Example 39b]	390	–
CC1CN(c2ccc(O)cc2)CCN1C(=O)[C@@H]1O[C@H](CO)[C@H](O)[C@H](n2cc(-c3cccc(F)c3)nn2)[C@H]1O (single isomer, unassigned) [Example 36]	340	–
O=C([C@@H]1O[C@H](CO)[C@H](O)[C@H](n2cc(-c3cccc(F)c3)nn2)[C@H]1O)N1CCN(c2ccc(O)cc2)CC1 [Example 1, ((2R, 3R, 4S, 5R, 6R)-4-(4-(3-fluorophenyl)-1H-1,2,3-triazol-1-yl)-3,5-dihydroxy-6-(hydroxymethyl)tetrahydro-2H-pyran-2-yl)(4-(4-hydroxyphenyl)piperazin-1-yl) methanone]	350	–
OCC1CN(c2ccc(O)cc2)CCN1C[C@@H]1O[C@H](CO)[C@H](O)[C@H](n2cc(-c3cccc(F)c3)nn2)[C@H]1O (single isomer, unassigned) [Example 39a]	310	–
CO[C@@H]1[C@@H](n2cc(-c3cccc(F)c3)nn2)[C@@H](O)[C@@H](CO)O[C@H]1C(=O)N1CCN(c2ccc(O)cc2)CC1 [Example 13, ((2R,3R,4S,5R,6R)-4-(4-(3-fluorophenyl)-1H-1,2,3-triazol-1-yl)-5-hydroxy-6-(hydroxymethyl)-3-methoxytetrahydro-2H-pyran-2-yl)(4-(4-hydroxyphenyl)piperazin-1-yl)methanone]	150	–
CS(=O)(=O)Nc1ccc(N2C[C@@H]3C[C@H]2CN3C(=O)[C@@H]2O[C@H](CO)[C@H](O)[C@H](n3cc(-c4cccc(F)c4)nn3)[C@H]2O)cc1 [Example 24, N-(4-((1S,4S)-5-((2R,3R,4S,5R,6R)-4-(4-(3-fluorophenyl)-1H-1,2,3-triazol-1-yl)-3,5-dihydroxy-6-(hydroxymethyl)tetrahydro-2H-pyran-2-carbonyl)-2,5-diazabicyclo[2.2.1]heptan-2-yl)phenyl)methanesulfonamide]	680	–
CS(=O)(=O)Nc1ccc(N2C[C@@H]3C[C@H]2CN3C(=O)[C@@H]2O[C@H](CO)[C@H](O)[C@H](n3cc(-c4cccc(F)c4)nn3)[C@H]2O)nc1 [Example 41, N-(6-((1S,4S)-5-((2R,3R,4S,5R,6R)-4-(4-(3-fluorophenyl)-1H-1,2,3-triazol-1-yl)-3,5-dihydroxy-6-(hydroxymethyl)tetrahydro-2H-pyran-2-carbonyl)-2,5-diazabicyclo[2.2.1]heptan-2-yl)pyridin-3-yl)methanesulfonamide]	720	–
O=C([C@@H]1O[C@H](CO)[C@H](O)[C@H](n2cc(-c3cccc(F)c3)nn2)[C@H]1O)N1C[C@@H]2C[C@H]1CN2c1ccc2c(c1)OCO2 [Example 20]	–	IC50 (Table 3, read-out: hGal-3 IC50): 249 nM
O=C([C@@H]1O[C@H](CO)[C@H](O)[C@H](n2cc(-c3cccc(F)c3)nn2)[C@H]1O)N1CCCN(c2ccc(O)cc2)CC1 [Example 33, ((2R, 3R, 4S, 5R, 6R)-4-(4-(3-fluorophenyl)-1H-1,2,3-triazol-1-yl)-3,5-dihydroxy-6-(hydroxymethyl)tetrahydro-2H-pyran-2-yl)(4-(4-hydroxyphenyl)-1,4-diazepan-1-yl)methanone]	480	–
Cn1ccc2cc(N3CCN(C(=O)[C@@H]4O[C@H](CO)[C@H](O)[C@H](n5cc(-c6cccc(F)c6)nn5)[C@H]4O)CC3)ccc21 [Example 6]	–	IC50 (Table 1, read-out: hGal-3 IC50): 420 nM
O=C([C@@H]1O[C@H](CO)[C@H](O)[C@H](n2cc(-c3cccc(F)c3)nn2)[C@H]1O)N1CCN(c2ccc3[nH]ccc3c2)CC1 [Example 3]	–	IC50 (Table 1, read-out: hGal-3 IC50): 480 nM
O=C(Nc1ccc(O)cc1)N1CCN(C(=O)[C@@H]2O[C@H](CO)[C@H](O)[C@H](n3cc(-c4cccc(F)c4)nn3)[C@H]2O)CC1 [Example 18, 4-((2R,3R,4S,5R,6R)-4-(4-(3-fluorophenyl)-1H-1,2,3-triazol-1-yl)-3,5-dihydroxy-6-(hydroxymethyl)tetrahydro-2H-pyran-2-carbonyl)-N-(4-hydroxyphenyl)piperazine-1-carboxamide]	250	–
